According to patent publication US10301664B2, “Repurposing non-antimicrobial drugs and clinical molecules to treat bacterial infections” (Purdue Research Foundation, priority 2015, dated 2019):
Read-outs that look alike come from different tables or passages of the source.

How the values were obtained:
MRSA USA300 = test: Library hits: MIC/MBC against MRSA; type: cell-based, Staphylococcus aureus; details: Staphylococcus aureus
[1] = system: E. faecium ATCC 700221 (VRE); test: MIC and MBC against E. faecium VRE (CLSI), Table 1; type: cell-based; details: Enterococcus faecium
[2] = system: Vancomycin-intermediate S. aureus (VISA); test: MIC and MBC against vancomycin-intermediate S. aureus isolates (CLSI); type: cell-based; details: Staphylococcus aureus; for MBC: read-out: MBC; for MIC: read-out: MIC
MRSA USA200 = type: in vivo, BALB/c mice; details: EB 30 mg/kg or FdUrd 25 mg/kg once daily for three days, monitored six days
Procedure: Animal procedures were approved by the Purdue University Animal Care and Use Committee (PACUC) (protocol no. 1311000988). Eight-week-old female BALB/c mice (Harlan Laboratories, Indianapolis, Ind.) were used for this study. Mice were rendered neutropenic by treatment with cyclophosphamide intraperitoneally (IP) 150 and 100 mg/kg at four days and one day before infection, respectively. Neutropenic mice were inoculated IP with 8×10^8 MRSA USA200. At one hour after infection, the mice were divided into five groups (n=10 per group), and two groups were treated orally with either EB 30 mg/kg or FdUrd 25 mg/kg. Two groups were treated IP with either EB 30 mg/kg or FdUrd 25 mg/kg. One group was used as a control with no treatment. Treatment was continued once daily for two more days (animals received three doses total). Mortality was monitored four times daily for six days, and the cumulative percent survival was determined. The data were subjected to statistical analysis using Kaplan-Meier survival curves. A log rank test was performed for 95% confidence intervals by GraphPad Prism 6.0 (GraphPad Software, La Jolla, Calif.).

[3] = system: Vancomycin-resistant S. aureus (VRSA); test: MIC and MBC against vancomycin-resistant S. aureus clinical isolates (CLSI); type: cell-based; details: Staphylococcus aureus, VRSA; for MBC: read-out: MBC; for MIC: read-out: MIC
[4] = system: vancomycin resistant E. faecium ATCC 700221 (VRE); test: Library hits: MIC/MBC against VRE; type: cell-based; details: VRE
[5] = system: clinical isolates of S. aureus; test: MIC90 over clinical isolates of S. aureus; type: cell-based; details: Staphylococcus aureus, Table 1, read-out: MIC90 (MIC at which 90% of clinical isolates of S. aureus were inhibited)
[6] = system: E. fecalis ATCC 51229 (VRE); test: MIC and MBC against E. fecalis VRE (CLSI); type: cell-based; details: Enterococcus
Procedure: The NIH Clinical Collections 1 and 2 (http://www.nihclinicalcollection.com) containing 727 FDA approved drugs and small molecules previously used in human clinical trials with known safety profiles were screened against ESKAPE pathogens. The library was initially screened at a single concentration of 16 μM to identify “hit” non-antibacterial drugs. Once the antimicrobial activity of the drugs was confirmed, we determined their MICs and minimum bactericidal concentrations (MBCs) according to the Clinical and Laboratory Standards Institute (CLSI).

S. epidermidis NRS 101 = test: MIC and MBC against S. epidermidis (CLSI); type: cell-based; details: Staphylococcus epidermidis, NRS101
[7] = system: Methicillin-sensitive S. aureus (MSSA); test: MIC and MBC against methicillin-sensitive S. aureus isolates (CLSI); type: cell-based; details: Staphylococcus aureus; for MBC: read-out: MBC; for MIC: read-out: MIC
P. aeruginosa ATCC 15442 = test: Library hits: MIC against P. aeruginosa; type: cell-based
[8] = system: Methicillin resistant S. aureus (MRSA); test: MIC and MBC against methicillin resistant S. aureus clinical isolates (CLSI); type: cell-based; details: Staphylococcus aureus; for MBC: read-out: MBC; for MIC: read-out: MIC
[9] = MRSA / NRS 119, NRS119 (resistant to linezolid)

O=c1[nH]c(=O)n([C@H]2C[C@H](O)[C@@H](CO)O2)cc1F [FdUrd, 5-fluoro-2′-deoxyuridine]
0.5 µM: MBC (MRSA USA300; read-out: MBC) | MBC [4]
0.975 ng/mL: MBC ([3]; VRSA3a) | MIC ([3]; VRSA3a) | MBC ([3]; VRSA8) | MIC ([3]; VRSA9) | MBC ([3]; VRSA10) | MIC ([3]; VRSA10) | MIC ([3]; VRSA11a) | MIC ([3]; VRSA11b) | MIC ([7]; MSSA / NRS 72) | MBC ([8]; MRSA / NRS 100) | MIC ([8]; MRSA / NRS 100) | MIC ([8]; MRSA / NRS 123) | MIC ([8]; MRSA / NRS 382) | MIC ([8]; MRSA / NRS 484, NRS 484)
62.5 ng/mL: MIC [1] | MBC ([8]; MRSA / NRS 194)
7.8 ng/mL: MBC ([2]; NRS 37 / VISA) | MBC ([3]; VRSA1) | MIC ([3]; VRSA1) | MBC (S. epidermidis NRS 101) | MIC (S. epidermidis NRS 101) | MIC ([8]; MRSA / NRS 108) | MBC ([8]; MRSA / NRS 382) | MBC ([8]; MRSA / NRS 383) | MIC ([8]; MRSA / NRS 383) | MBC ([8]; MRSA / NRS 386, NRS 386) | MBC ([8]; MRSA / NRS 483, NRS 483)
0.49 ng/mL: MIC ([2]; NRS 19 / VISA) | MBC ([3]; VRSA3b) | MIC ([3]; VRSA3b) | MIC ([3]; VRSA6) | MIC ([3]; VRSA8) | MBC ([7]; MSSA / NRS 77) | MIC ([7]; MSSA / NRS 77)
< 0.5 µM: MIC (MRSA USA300; read-out: MIC) | MIC ([4]; read-out: MIC)
60%: mice survival compared to that of control (MRSA USA200; oral)
3.15 ng/mL: MBC ([8]; MRSA / NRS 70)
1.95 ng/mL: MBC ([2]; NRS 1 / VISA, NRS 1) | MIC ([2]; NRS 1 / VISA, NRS 1) | MBC ([2]; NRS 19 / VISA) | MIC ([2]; NRS 37 / VISA) | MIC ([3]; VRSA4) | MBC ([3]; VRSA5) | MIC ([3]; VRSA5) | MBC ([3]; VRSA6) | MIC ([3]; VRSA7) | MBC ([3]; VRSA9) | MIC ([3]; VRSA12) | MIC ([3]; VRSA13) | MBC ([7]; MSSA / NRS 72) | MBC ([7]; MSSA / NRS 860) | MIC ([7]; MSSA / NRS 860) | MBC ([8]; MRSA / NRS 71) | MIC ([8]; MRSA / NRS 71) | MBC ([8]; MRSA / NRS 384, NRS 384) | MIC ([8]; MRSA / NRS 384, NRS 384) | MIC ([8]; MRSA / NRS 386, NRS 386) | MIC ([8]; MRSA / NRS 483, NRS 483)
31.5 ng/mL: MBC ([8]; MRSA / NRS 385, NRS 385) | MIC ([8]; MRSA / NRS 385, NRS 385)
15.6 ng/mL: MBC ([3]; VRSA2) | MBC ([3]; VRSA11a) | MBC ([3]; VRSA13) | MBC ([8]; MRSA / NRS 108) | MBC [8, 9] | MBC ([8]; MRSA / NRS 387, NRS 387)
100%: mice survival compared to that of control (MRSA USA200; IP)
3.9 ng/mL: MIC ([3]; VRSA2) | MBC ([3]; VRSA4) | MBC ([3]; VRSA7) | MBC ([3]; VRSA11b) | MBC ([3]; VRSA12) | MIC90 [5] | MBC ([7]; MSSA / NRS 846) | MIC ([7]; MSSA / NRS 846) | MIC ([8]; MRSA / NRS 70) | MIC [8, 9] | MBC ([8]; MRSA / NRS 123) | MIC ([8]; MRSA / NRS 194) | MIC ([8]; MRSA / NRS 387, NRS 387) | MBC ([8]; MRSA / NRS 484, NRS 484)
>16 µM: MIC/MBC (P. aeruginosa ATCC 15442)
125 ng/mL: MBC [1] | MBC [6] | MIC [6]
